These results are taken from ChEMBL document CHEMBL4152244, “Discovery of new erbB4 inhibitors: Repositioning an orphan chemical library by inverse virtual screening” (Eur J Med Chem, 2018).

Structures are written as SMILES. Activity calls are given as the source filed them. The calls are words filed in the database; no cut-off is given here.

As usually defined, the inhibition is the change of the read-out against control, counted positive when it falls. The IC50 is the concentration that gives 50% inhibition.

Assay [1] deals with T1, 3-phosphoinositide-dependent protein kinase 1 (Homo sapiens) (UniProt O15530).
T1 sequence (whole entry): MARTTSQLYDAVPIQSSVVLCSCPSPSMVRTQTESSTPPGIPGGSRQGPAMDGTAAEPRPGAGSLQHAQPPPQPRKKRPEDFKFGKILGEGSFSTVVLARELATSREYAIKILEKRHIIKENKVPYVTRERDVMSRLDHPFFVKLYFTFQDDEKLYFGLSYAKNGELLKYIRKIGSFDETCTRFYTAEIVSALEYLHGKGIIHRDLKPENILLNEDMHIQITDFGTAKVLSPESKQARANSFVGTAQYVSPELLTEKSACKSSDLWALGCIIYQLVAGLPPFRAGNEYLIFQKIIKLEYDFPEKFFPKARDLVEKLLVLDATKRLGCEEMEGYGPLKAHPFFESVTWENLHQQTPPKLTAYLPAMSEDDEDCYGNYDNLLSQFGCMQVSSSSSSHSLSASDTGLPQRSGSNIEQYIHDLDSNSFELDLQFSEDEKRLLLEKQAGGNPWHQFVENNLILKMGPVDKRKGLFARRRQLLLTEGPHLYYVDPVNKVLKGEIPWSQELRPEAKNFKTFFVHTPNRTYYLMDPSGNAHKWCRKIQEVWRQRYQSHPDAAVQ
Description: Inhibition of recombinant human N-terminal His6-fused pdk1 expressed in Sf9 insect cells at 10 uM using tetra (LRRWSLG) as substrate after 60 mins in presence of [gamma-33P]-ATP by microplate scintillation counting method relative to control.

Assay [2] deals with T2, Ephrin type-A receptor 3 (Homo sapiens) (UniProt P29320).
T2 sequence (whole entry): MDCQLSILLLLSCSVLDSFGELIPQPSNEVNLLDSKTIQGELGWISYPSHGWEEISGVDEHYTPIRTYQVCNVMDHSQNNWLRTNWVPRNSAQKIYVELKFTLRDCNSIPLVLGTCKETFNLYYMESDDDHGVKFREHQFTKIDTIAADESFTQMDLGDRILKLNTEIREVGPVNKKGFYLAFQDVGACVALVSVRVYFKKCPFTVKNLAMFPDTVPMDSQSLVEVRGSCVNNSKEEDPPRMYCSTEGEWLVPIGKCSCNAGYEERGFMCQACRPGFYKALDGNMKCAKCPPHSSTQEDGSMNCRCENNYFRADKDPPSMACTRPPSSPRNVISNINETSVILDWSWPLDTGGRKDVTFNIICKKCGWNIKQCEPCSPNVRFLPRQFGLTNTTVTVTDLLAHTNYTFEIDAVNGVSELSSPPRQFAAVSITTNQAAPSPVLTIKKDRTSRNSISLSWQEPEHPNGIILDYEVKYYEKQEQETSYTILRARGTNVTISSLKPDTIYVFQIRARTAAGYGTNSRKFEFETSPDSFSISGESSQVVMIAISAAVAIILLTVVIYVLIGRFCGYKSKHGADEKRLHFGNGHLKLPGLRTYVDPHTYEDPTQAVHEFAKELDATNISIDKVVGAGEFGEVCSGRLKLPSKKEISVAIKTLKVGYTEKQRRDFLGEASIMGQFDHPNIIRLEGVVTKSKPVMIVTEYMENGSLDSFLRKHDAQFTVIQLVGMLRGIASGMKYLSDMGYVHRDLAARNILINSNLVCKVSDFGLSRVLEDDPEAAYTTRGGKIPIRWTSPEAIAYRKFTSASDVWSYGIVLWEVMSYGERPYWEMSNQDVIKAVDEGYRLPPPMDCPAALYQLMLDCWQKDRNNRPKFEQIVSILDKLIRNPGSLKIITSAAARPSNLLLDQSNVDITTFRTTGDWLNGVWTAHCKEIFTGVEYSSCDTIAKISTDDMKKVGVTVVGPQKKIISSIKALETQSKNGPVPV
As to the kind of experiment: Inhibition of recombinant human N-terminal GST-His6-fused ephA3 expressed in Sf9 insect cells at 10 uM using poly (Glu, Tyr) 4:1 as substrate after 60 mins in presence of [gamma-33P]-ATP by microplate scintillation counting method relative to control.

The target in assay [3] is T3, Receptor tyrosine-protein kinase erbB-4 (Homo sapiens, UniProt Q15303). As to the kind of experiment: Inhibition of recombinant human N-terminal GST-His6-fused erbB4 expressed in Sf9 insect cells at 10 uM using poly (Glu, Tyr) 4:1 as substrate after 60 mins in presence of [gamma-33P]-ATP by microplate scintillation counting method relative to control.
T3 sequence (Q15303 whole entry, the tested form may be a part): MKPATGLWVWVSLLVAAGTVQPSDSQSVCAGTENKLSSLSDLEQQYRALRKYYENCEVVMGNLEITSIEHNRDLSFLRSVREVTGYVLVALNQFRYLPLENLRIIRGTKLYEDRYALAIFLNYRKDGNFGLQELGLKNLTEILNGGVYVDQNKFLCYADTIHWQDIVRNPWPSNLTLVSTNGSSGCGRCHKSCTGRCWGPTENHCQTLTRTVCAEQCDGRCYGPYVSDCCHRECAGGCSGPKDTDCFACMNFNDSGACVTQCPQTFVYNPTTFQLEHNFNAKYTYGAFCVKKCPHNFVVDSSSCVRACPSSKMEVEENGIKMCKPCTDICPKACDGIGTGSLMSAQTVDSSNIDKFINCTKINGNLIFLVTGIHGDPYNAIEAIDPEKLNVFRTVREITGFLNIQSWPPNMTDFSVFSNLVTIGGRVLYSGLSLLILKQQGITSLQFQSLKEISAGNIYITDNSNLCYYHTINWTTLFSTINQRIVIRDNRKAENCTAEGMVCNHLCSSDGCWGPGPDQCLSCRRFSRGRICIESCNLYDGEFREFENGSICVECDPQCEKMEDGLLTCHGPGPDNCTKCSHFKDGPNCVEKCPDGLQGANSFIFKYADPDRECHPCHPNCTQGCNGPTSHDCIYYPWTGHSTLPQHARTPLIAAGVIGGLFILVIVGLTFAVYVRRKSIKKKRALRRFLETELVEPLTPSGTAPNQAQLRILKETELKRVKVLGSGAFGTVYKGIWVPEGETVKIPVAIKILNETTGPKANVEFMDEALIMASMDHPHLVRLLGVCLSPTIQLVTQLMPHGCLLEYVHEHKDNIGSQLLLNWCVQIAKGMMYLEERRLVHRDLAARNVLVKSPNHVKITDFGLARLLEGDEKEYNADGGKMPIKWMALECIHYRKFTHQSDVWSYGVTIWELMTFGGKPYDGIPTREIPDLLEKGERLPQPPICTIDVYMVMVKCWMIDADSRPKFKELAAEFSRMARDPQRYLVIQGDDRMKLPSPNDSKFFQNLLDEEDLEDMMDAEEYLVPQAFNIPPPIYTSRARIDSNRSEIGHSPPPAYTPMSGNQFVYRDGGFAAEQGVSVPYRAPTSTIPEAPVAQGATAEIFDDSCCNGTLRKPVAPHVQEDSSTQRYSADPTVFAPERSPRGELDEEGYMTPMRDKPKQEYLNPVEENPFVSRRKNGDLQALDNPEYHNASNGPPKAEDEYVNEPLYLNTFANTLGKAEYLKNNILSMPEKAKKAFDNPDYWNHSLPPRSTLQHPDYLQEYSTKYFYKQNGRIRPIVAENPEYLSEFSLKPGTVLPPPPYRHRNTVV
For assay [4], the target named is T3, Receptor tyrosine-protein kinase erbB-4. As to the kind of experiment: Inhibition of recombinant human N-terminal GST-His6-fused erbB4 expressed in Sf9 insect cells using poly (Glu, Tyr) 4:1 as substrate after 60 mins in presence of [gamma-33P]-ATP by microplate scintillation counting method.
For assay [5], the system named is MCF7. As to the kind of experiment: Cytotoxicity against human MCF7 cells after 24 hrs by MTT assay. It is filed as functional, cell-based. The conditions noted are these: MCF7, 24 h. A general note: Formazan colour is commonly taken as a measure of viable cells.
Assay [6] deals with Receptor tyrosine-protein kinase erbB-2 (Homo sapiens, UniProt P04626). As to the kind of experiment: Inhibition of recombinant human N-terminal GST-His6-fused erbB2 expressed in Sf9 insect cells using poly (Glu, Tyr) 4:1 as substrate after 60 mins in presence of [gamma-33P]-ATP by microplate scintillation counting method.
Receptor tyrosine-protein kinase erbB-2, sequence (P04626 whole entry, the tested form may be a part): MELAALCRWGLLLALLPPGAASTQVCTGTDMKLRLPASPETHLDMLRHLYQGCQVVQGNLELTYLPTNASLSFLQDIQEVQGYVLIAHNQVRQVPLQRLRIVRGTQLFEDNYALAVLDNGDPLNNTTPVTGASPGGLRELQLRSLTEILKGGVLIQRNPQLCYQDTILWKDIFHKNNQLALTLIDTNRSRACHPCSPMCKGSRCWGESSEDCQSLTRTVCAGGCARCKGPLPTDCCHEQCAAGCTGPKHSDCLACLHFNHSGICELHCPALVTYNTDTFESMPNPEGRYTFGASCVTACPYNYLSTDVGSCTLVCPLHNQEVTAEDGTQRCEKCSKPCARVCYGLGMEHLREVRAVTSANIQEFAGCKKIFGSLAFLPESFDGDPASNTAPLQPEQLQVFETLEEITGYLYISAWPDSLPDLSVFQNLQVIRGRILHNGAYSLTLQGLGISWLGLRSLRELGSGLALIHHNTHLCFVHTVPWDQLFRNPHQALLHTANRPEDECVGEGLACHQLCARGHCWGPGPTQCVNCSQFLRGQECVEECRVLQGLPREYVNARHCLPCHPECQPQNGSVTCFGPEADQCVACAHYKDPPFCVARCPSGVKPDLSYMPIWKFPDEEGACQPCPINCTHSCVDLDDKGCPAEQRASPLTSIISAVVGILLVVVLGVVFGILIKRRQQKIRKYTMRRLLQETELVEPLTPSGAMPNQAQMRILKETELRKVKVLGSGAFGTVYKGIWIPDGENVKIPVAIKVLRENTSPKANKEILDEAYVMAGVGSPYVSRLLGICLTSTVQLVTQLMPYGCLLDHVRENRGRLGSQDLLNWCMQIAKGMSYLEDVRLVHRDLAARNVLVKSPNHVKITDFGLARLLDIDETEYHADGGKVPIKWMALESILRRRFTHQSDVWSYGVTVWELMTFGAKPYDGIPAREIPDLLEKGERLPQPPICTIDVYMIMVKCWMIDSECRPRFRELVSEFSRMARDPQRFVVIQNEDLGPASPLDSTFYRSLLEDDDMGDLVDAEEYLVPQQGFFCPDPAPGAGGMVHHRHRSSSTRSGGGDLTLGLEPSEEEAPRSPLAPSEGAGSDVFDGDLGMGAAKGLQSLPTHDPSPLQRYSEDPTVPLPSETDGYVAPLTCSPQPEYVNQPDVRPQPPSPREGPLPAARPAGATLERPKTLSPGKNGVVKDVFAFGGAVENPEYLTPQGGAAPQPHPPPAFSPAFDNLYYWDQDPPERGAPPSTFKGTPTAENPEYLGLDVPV
Assay [7] deals with MCF7. Description: Induction of cell death in human MCF7 cells assessed as appearance of sub-G0 hypodiploid nuclei at 1 uM after 24 hrs by propidium iodide staining-based flow cytometric method. The class given is functional.
In assay [8] the test system is MCF7. Description: Cell cycle arrest in human MCF7 cells assessed as accumulation at G2/M phase at 1 uM after 24 hrs by propidium iodide staining-based flow cytometric method. It is filed as functional. On the technique in general: Flow cytometry measures light scatter and fluorescence of single cells or particles in a stream.

As for `O=S(=O)(NCCc1cccc(F)c1)c1cc(-c2cc3ccccc3[nH]2)cc(C(F)(F)F)c1`, the inhibition in assay [1] came out at 52.2%; in assay [2], 22.7%; in assay [3], 4.6%.

For the compound `COC(=O)c1ccc(-c2cc(C(F)(F)F)cc(S(=O)(=O)NCCc3cccc(F)c3)c2)cn1`, in assay [3], the inhibition amounted to 15.8%.

On to `O=S(=O)(NCCc1cccc(F)c1)c1cc(-c2ccc(COc3cccc(C(F)(F)F)c3)cc2)cc(C(F)(F)F)c1`, for which the inhibition came to 50.8% in assay [1], 28.5% in assay [2] and 67.9% in assay [3]. Besides, the results for the 50% inhibitory concentration (IC50) (in assay [4]; with MCF7 [5]; in assay [6]) were 5.06 µM, 28.2 µM and 18 µM, respectively.

In the case of `COc1ncc(-c2cc(C(F)(F)F)cc(S(=O)(=O)NCCc3cccc(F)c3)c2)c(OC)n1`, the inhibition in assay [3] came out at 10.3%.

On to `O=S(=O)(NCCc1cccc(F)c1)c1cc(-c2ccccc2COc2cccc(C(F)(F)F)c2)cc(C(F)(F)F)c1`, for which the inhibition in assay [1] turned out to be 52.7%; in assay [2] it was 30.4%; in assay [3], 63.1%. In addition, the IC50 in assay [4] worked out at 4.41 µM; in the assay with MCF7 [5] it was 44.2 µM; in assay [6] it was 9.71 µM.

On to `O=S(=O)(NCCc1cccc(F)c1)c1cc(-c2cccnc2)cc(C(F)(F)F)c1`, for which the inhibition is 4.2% in assay [2] and 15.7% in assay [3].

With `O=Cc1ccc(-c2cc(C(F)(F)F)cc(S(=O)(=O)NCCc3cccc(F)c3)c2)s1`, the inhibition in assay [1] stood at 5.2%; in assay [2] it was 7.8%; in assay [3] it was 22.2%.

As for `O=S(=O)(NCCc1cccc(F)c1)c1cc(-c2ccc(F)nc2)cc(C(F)(F)F)c1`, the inhibition in assay [1] was 10.3%; in assay [3] it was 7.5%.

Regarding `O=S(=O)(NCCc1cccc(F)c1)c1cc(-c2cccc3c2oc2ccccc23)cc(C(F)(F)F)c1`, the inhibition was 2.4% in assay [1], 11.1% in assay [2] and 50.5% in assay [3].

In the case of `COc1cc(-c2cc(C(F)(F)F)cc(S(=O)(=O)NCCc3cccc(F)c3)c2)c(OC)nn1`, the inhibition in assay [3] is 14.9%.

With `O=S(=O)(NCCc1cccc(F)c1)c1cc(-c2ccc(COc3cccc4ccccc34)cc2)cc(C(F)(F)F)c1`, the inhibition in assay [1] came out at 35.6%; in assay [2], 30.1%; in assay [3], 49%.

For the compound `O=S(=O)(NCCc1cccc(F)c1)c1cc(-c2ccnc(F)c2)cc(C(F)(F)F)c1`, the inhibition in assay [2] amounted to 9.1%; in assay [3], 18.4%.

Turning to `COCCc1ccc(OCc2ccc(-c3cc(C(F)(F)F)cc(S(=O)(=O)NCCc4cccc(F)c4)c3)cc2)cc1`, the values for the inhibition in assay [1], in assay [2] and in assay [3] were 42.8%, 33.1% and 67.7%, respectively. The IC50 was determined as 6.43 µM in assay [4], 45.1 µM in the assay with MCF7 [5] and 25.4 µM in assay [6].

`COc1cc(-c2cc(C(F)(F)F)cc(S(=O)(=O)NCCc3cccc(F)c3)c2)ccc1F`: the inhibition came out at 27.6% in assay [1] and 12.8% in assay [3].

In the case of `O=S(=O)(NCCc1cccc(F)c1)c1cc(-c2ccc(-c3cccs3)s2)cc(C(F)(F)F)c1`, the result in the assay with MCF7 [7] was inactive. The figures for the inhibition in assay [1], in assay [2] and in assay [3] were 40.3%, 22% and 57%, respectively. The IC50 in assay [4] was found to be 8.05 µM; in the assay with MCF7 [5] it was 9.09 µM; in assay [6] it was 31.5 µM. Further, the result in the assay on MCF7 [8] was Active.

On to `COc1ccc(F)cc1-c1cc(C(F)(F)F)cc(S(=O)(=O)NCCc2cccc(F)c2)c1`, for which the inhibition in assay [1] worked out at 40.5%; in assay [3], 19.1%.

Regarding `O=S(=O)(NCCc1cccc(F)c1)c1cc(-c2cccc3c2Sc2ccccc2S3)cc(C(F)(F)F)c1`, the figures for the inhibition in assay [1], in assay [2] and in assay [3] were 35%, 32.8% and 57.9%, respectively. The IC50 in assay [4] amounted to 6.4 µM; in the assay on MCF7 [5], 22.8 µM; in assay [6] it was 10.4 µM.

In the case of `Cc1noc(C)c1-c1cc(C(F)(F)F)cc(S(=O)(=O)NCCc2cccc(F)c2)c1`, the inhibition in assay [3] turned out to be 9%.

For `O=S(=O)(NCCc1cccc(F)c1)c1cc(-c2cccc(S(=O)(=O)N3CCCC3)c2)cc(C(F)(F)F)c1`, the inhibition in assay [1] worked out at 5.7%; in assay [3] it was 34.3%.
